{
  "source": "patent US7232798B2",
  "about": "“Neuroprotection and neuroegenisis by administering cyclic prolyl glycine” (priority 2001, dated 2007)",
  "key": {"[1]": {"conditions": "fetal sheep, cited from earlier work"}, "[2]": {"tested_on": "6-OHDA induced nigral-striatal lesion", "experiment": "Apomorphine-induced rotations after 6-OHDA induced nigral-striatal lesion", "type": "in vivo, Wistar rats", "experimental": "Twenty male Wistar rats (280-310 g) were used. After exposing the skull, 6-OHDA (8 μg in a base of 2 μl 0.9% saline containing 1% ascorbic acid) was administered into the right medial forebrain bundle (MFB) using co-ordinates AP +4.7 mm, R 1.6 mmv-8 mm under 3% halothane anaesthesia. 6-OHDA was injected through a 25 G needle connected via a polyethylene catheter to a 100 μl Hamilton syringe. The 6-OHDA was infused by a microdialysis infusion pump at a rate of 0.5 μl/min. The needle was left in the brain for a further 3 minutes before being slowly withdrawn. The skin was sutured with 2.0 silk and the rats were allowed to recover from anaesthesia. The rats were housed in a holding room with free access to food and water at all times except during behavioural testing.\nCyclic PG was dissolved in saline. Four different doses of cPG (0, 0.1 0.5 1 mg/kg, Bachem) were administered intraperitoneally 2 h post lesion.\nAt 7 days post-lesion, rats were injected with 0.1 mg/kg apomorphine and the number of contralateral rotations/hour was recorded and calculated using a computerised Rotameter (St Diego Instruments). Experimenter was blinded from the treatment groups."}, "[3]": {"tested_on": "cerebellar microexplants (P4)", "experiment": "Glutamate toxicity in P4 cerebellar microexplants and rescue by cPG", "type": "cell-based, Wistar rats", "description": "Cerebellar Cell Culture Preparing and Coating of Cover Slips\nTen coverslips were placed into a large petri dish and washed in 70% alcohol for 5 minutes, then washed with Millipore H2O. The coverslips were air dried, then coated with Poly-D-Lysine (1 mg/ml stock solution in PBS, 90-100 μl) and incubated for 2 hours at 34 C.\nPostnatal day 4 Wistar rats were used for the study. Rats were placed in ice for 1 minute, the heads were decapitated and the cerebellum removed on ice. […] The tissue was sieved through (125 μm pore size gaze) and centrifuged (2 minutes at 60 g) two times for a medium exchange into serum-free BSA-supplemented START V medium (Biochrom). The second centrifugation step was done with 1 ml of START V medium. The microexplants were reconstituted into 500 μl of START V medium and put on ice\nTwo hours after PDL-coating, the slides were washed with Millipore H2O and air dried. Each slide was placed into a small 35 mm petri dish and 40 μl of START V/cell suspension added. The tissue was incubated for 2 hours at 34 C (settlement period). START V-medium (1 ml) was then added to the petri dish and cultivated at 34 C/5% CO2/100% humidity for 48 hours. […] Finally, the microexplants were rinsed in PBS.\n10 μl of toxin (L-glutamate-100 mM in Millipore water) was applied simultaneously with cPG (from bachem, 10 mM stock prepared in PBS and diluted to final concentrations between 1-100 nM) for Study 1. A delay in administration of cPG at 6 hours after glutamate treatment was performed for Study 2."}, "[4]": {"tested_on": "rat Hippocampal Organotypic cultures exposed to NMDA", "conditions": "lower (1 μM) or higher (50-100 μM) concentrations reduced neuronal damage to a lesser extent; cited from earlier work"}},
  "data": [
    {"compound": "insulin-like growth factor I [IGF-I]", "values": [
      {"measurement": "dose at which all the neuroprotective effects are lost", "setting": "[1]; 1 μg more neuroprotective than 100 ng", "result": 10, "unit": "µg"},
      {"measurement": "dose that usually killed the sheep fetus", "setting": "[1]", "result": "≥ 100", "unit": "µg"}
    ]},
    {"compound": "O=C1NCC(=O)N2CCC[C@@H]12", "note": "[cPG, cyclic Prolyl Glycine]", "values": [
      {"measurement": "number of contralateral rotations/hour", "setting": "[2]; 1 mg cPG intraperitoneally 2 h post lesion, 7 days post-lesion, 0.1 mg/kg apomorphine, n=5, FIG. 5", "result": "154±64.1", "unit": "rotations/hour"},
      {"measurement": "reduction of functional deficit (apomorphine induced rotations)", "setting": "[2]; highest dose tested (1 mg/kg), ns", "result": 47, "unit": "%"},
      {"measurement": "neuron number compared to the normal control group", "setting": "[3]; a further lower dose of cPG", "result": "significant increase"},
      {"measurement": "glutamate-induced neurotoxicity", "setting": "[3]; given either immediately or 6 hours after the glutamate treatment", "result": "completely prevented"}
    ]},
    {"compound": "glycine-proline-glutamate [GPE]", "values": [
      {"measurement": "concentration giving the highest degree of neuroprotection", "setting": "[4]", "result": 10, "unit": "µM"}
    ]},
    {"compound": "N[C@@H](CCC(=O)O)C(=O)O", "note": "[Glutamate, L-glutamate, reference compound]", "values": [
      {"measurement": "loss of cerebellum neurons", "setting": "[3]; Study 1, glutamate treatment alone", "result": 85, "unit": "%"}
    ]}
  ]
}
